From patent US20030118577A1, “Use of analogues of superoxide dismutase for treating hepatocellular insufficiencies” (priority 2000, published 2003)

System: acute hepatic insufficiency induced by acetaminophen
Test: Assay of serum transaminases ALAT and ASAT after acetaminophen
Assay type: in vivo, mice
Conditions: MnTBAP 10 mg/kg 2 h before, after 24 hours
Description: The serum transaminases ALAT and ASAT are assayed 12 hours and 24 hours after the administration of acetaminophen.
Since the results risked being biased by the fact that the mice surviving 24 hours after the administration of acetaminophen were probably, regardless of the group involved, those which had the lowest transaminase activity, a second series of experiments were carried out, administering 500 mg/kg of acetaminophen, the other experimental conditions remaining the same. At this dosage, all the mice were still alive after 24 hours.
The results are illustrated by FIGS. 2A and 2B, which represent the ASAT and ALAT activity, respectively, according to the products administered.

## O=C(O)c1ccc(-c2c3nc(c(-c4ccc(C(=O)O)cc4)c4ccc([n-]4)c(-c4ccc(C(=O)O)cc4)c4nc(c(-c5ccc(C(=O)O)cc5)c5ccc2[n-]5)C=C4)C=C3)cc1.[Mn+3] [MnTBAP, Mn(III) tetrakis(5,10,15,20-benzoic acid)porphyrin]
Acetaminophen 500 mg/kg (APAP500)
  transaminase activities (ASAT, ALAT), fold lower than without MnTBAP: 10 fold
Acetaminophen 1000 mg/kg (APAP1000)
  transaminase activities (ASAT, ALAT), fold lower than without MnTBAP: 6 fold
